Data: article PMC13429874, “ABHD2 activity is not required for the non-genomic action of progesterone on human sperm” (Human Reproduction (Oxford, England), 2026)
Entries after “also recorded” stand apart in the source; their conditions may differ.

Assays:
[1] = biological target: T1, ABHD2^L33–E425 (Homo sapiens, UniProt P08910); assay: Differential scanning fluorimetry (DSF) with purified ABHD2^L33–E425; format: binding; settings: for ΔTm shift for ABHD2^L33-425 determined by DSF: purified protein
T1 construct: expression for ABHD2 amino acids L33–E425, in which a predicted transmembrane domain (amino acids 1–32) is removed; His6-FLAG (N); made in house; host or cells: E. coli BL21(DE3)-R3-pRARE2
T1 sequence (P08910 33-425): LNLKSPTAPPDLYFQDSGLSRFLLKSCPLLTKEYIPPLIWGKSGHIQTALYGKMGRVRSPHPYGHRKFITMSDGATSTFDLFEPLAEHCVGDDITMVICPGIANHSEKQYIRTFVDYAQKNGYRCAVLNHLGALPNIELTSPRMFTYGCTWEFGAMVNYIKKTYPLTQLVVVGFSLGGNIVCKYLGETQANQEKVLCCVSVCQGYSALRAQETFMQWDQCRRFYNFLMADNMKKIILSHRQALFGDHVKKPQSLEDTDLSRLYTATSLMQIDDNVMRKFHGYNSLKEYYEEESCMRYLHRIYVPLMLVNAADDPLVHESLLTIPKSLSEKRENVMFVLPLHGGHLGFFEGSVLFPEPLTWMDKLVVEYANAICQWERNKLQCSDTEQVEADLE

[2] = biological target: T1, ABHD2^L33–E425; assay: ABHD2^L33-E425 fluorometric enzymatic activity assay with 7-HCA substrate; format: biochemical; settings: for IC50: 10 nM enzyme, 10 µM 7-HCA, read-out: IC50 for ABHD2^L33-425, fluorometric assay using 7-HCA
[3] = biological target: T2, full-length human ABHD2 (ABHD2^FL) (Homo sapiens, UniProt P08910); assay: ABHD2^FL enzymatic activity assay with 7-HCA substrate; format: biochemical; settings: for IC50: Supplementary Table S2, read-out: IC50 measured in ABHD2^FL in the 7-HCA Assay
T2 construct: TEV site-eGFP-8xHis (C, cleaved yes); made in house; host or cells: SF9 insect cells (baculovirus)
T2 sequence (P08910 1-425): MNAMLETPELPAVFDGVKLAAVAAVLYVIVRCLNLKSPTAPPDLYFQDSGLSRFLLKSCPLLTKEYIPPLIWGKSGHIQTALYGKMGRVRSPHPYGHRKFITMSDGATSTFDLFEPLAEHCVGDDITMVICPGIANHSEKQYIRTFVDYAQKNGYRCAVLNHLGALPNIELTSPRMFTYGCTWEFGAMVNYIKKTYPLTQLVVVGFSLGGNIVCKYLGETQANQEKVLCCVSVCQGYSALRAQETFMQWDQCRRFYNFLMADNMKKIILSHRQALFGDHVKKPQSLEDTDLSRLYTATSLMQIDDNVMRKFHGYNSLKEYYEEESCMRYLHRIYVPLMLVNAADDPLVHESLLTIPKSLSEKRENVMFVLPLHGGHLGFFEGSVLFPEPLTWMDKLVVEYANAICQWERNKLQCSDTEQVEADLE

[4] = system: human sperm; assay: Sperm hyperactivation assay (CASA); format: cell-based; settings: 10 µM compound, 30 min; for effect on progesterone-induced hyperactivation: 3 µM progesterone
Procedure: Sperm hyperactivation was assessed in human sperm purified by density gradient centrifugation. Semen samples (n = 7) were allowed to liquefy for 15–30 min at 37°C, and up to 2 ml of liquified semen was layered onto a two-step GM501 gradient system (45%/90%; Gynemed; Sierksdorf, Germany) pre-equilibrated at 37°C. Gradients were centrifuged for 20 min at 400 × g (no break). The 90% pellet was collected, washed in SpermActive medium (Gynemed; composition per manufacturer: NaCl, KCl, MgSO4.7H2O, KH2PO4, 1.77 mM CaCl2.2H2O, D(+)-glucose anhydrous, sodium pyruvate, sodium lactate, EDTA, alanyl-glutamine, essential and non-essential amino acids, 25.71 mM NaHCO3, 15 mM HEPES, 5 g/l human serum albumin, 10 mg/l gentamicin, and phenol red), and incubated for at least 2 h at 37°C, 5% CO2.
For compound testing, sperm suspensions with 7.5 × 10^6 sperm/ml in SpermActive were treated with either DMSO (vehicle) or 10 µM test compound. For basal and induced hyperactivation conditions, DMSO or progesterone (3 µM), respectively, was added. Samples were incubated for 30 min at 37°C, 5% CO2, before motility analysis.
Motility was analyzed using a CASA system (CEROSII^TM Animal Motility, software version 1.16; Hamilton Thorne, Beverly, MA, USA), mounted on an Axiolab 5 microscope (Zeiss, Germany), equipped with a TPi-SX Thermal Plate (Tokai Hit; Shizuoka-ken, Japan) and a JAI CM-040-GE CCD camera (JAI; Tokyo, Japan). Leja slides (20 µm chamber depth; Leja Products B.V., Nieuw-Vennep, The Netherlands) were pre-warmed to 37°C, cleaned with lens paper, and loaded by capillary action with 6 µl sperm suspension; capillary correction was set to 1.3. Sperm tracks were recorded at 37°C using a 10× negative-phase objective, acquiring 60 frames at 60 Hz with 4 ms exposure and gain set to 600. For each sample and condition, 300–500 motile sperm from at least 10 non-overlapping fields were analyzed. Hyperactive sperm were identified using the SORT function with the following Boolean argument: VCL > 150 µm/s and LIN < 50% and ALH > 7 µm. For each sample and condition, the percentage of hyperactive sperm was normalized to the percentage of motile sperm, and the mean of two technical duplicates was reported.
Statistical analysis was performed using GraphPad Prism 10 for Windows (version 10.6.1). Data normality was assessed using Shapiro–Wilk test. Differences between basal and induced hyperactivation were evaluated using a paired t-test, with effective pairing confirmed across all comparisons. P < 0.05 was considered statistically significant.

[5] = system: human sperm; assay: Sperm intracellular Ca2+ measurements (Fluo-4); format: cell-based; settings: for compound-evoked changes in [Ca2+]i: 10 µM compound; for effect on progesterone-induced Ca2+ signal (amplitude and waveform): compounds 10 µM, TS150 60 µM, progesterone 3 µM
Procedure: Measurements of the changes in sperm intracellular Ca^2+ concentration ([Ca^2+]i) were performed on motile human sperm purified by swim-up. Semen samples were allowed to liquefy for 15–60 min at 37°C, and 0.5–1 ml liquified semen was layered beneath 4 ml human tubal fluid medium (HTF; 97.8 mM NaCl, 4.69 mM KCl, 0.2 mM MgSO4, 0.37 mM KH2PO4, 2.04 mM CaCl2, 2.78 mM glucose, 0.33 mM sodium pyruvate, 21.4 mM lactic acid, 4 mM NaHCO3, and 21 mM HEPES pH 7.35 adjusted with NaOH) in 50 ml conical tubes. Motile sperm were allowed to swim up into the HTF for 60–90 min at 37°C, collected, washed twice (700 × g, 20 min, 37°C), and resuspended in HTF containing 3 mg/ml HSA at a density of 1 × 10^7 sperm/ml. Changes of [Ca^2+]i in motile human sperm were measured as previously described ([Rennhack et al., 2018]), using a fluorescence plate-reader assay (FLUOstar Omega, BMG LABTECH) with 384-well plates. Swim-up-purified sperm were loaded with Fluo4-AM (5 μM, Thermo Fisher Scientific, Waltham, MA, USA) and Pluronic F-127 (0.05% w/v) for 20 min at 37°C. Excess dye was removed by centrifugation at 700 × g for 5 min, supernatant removal, and resuspension to 5 × 10^6 sperm/ml in HTF.
For recordings, wells of a 384-well plate were filled with 50 μl of the dye-loaded sperm suspension. Fluorescence was excited at 480 nm, and emission was recorded at 520 nm using a plate reader (Fluostar Omega, BMG Labtech). After establishing a baseline for at least 60 s, 25 µl test compound solutions were added and the fluorescence response recorded. After 4 min, 7.5 µl progesterone was added to reach a final concentration of 3 µM, and ensuing changes in fluorescence were recorded. For the analysis of compound-evoked Ca^2+ signal, basal fluorescence (F0) was determined prior to compound addition. For the determination of inhibitory effects of compounds on progesterone-evoked Ca^2+ signals, basal fluorescence (F0) was determined before progesterone addition. The CatSper inhibitor TS150 ([Schierling et al., 2023]) was used as a control. Each compound was tested in technical duplicates across ≥3 biological replicates, using sperm from at least two donors, and performed on at least two separate days.
Data analysis and graphical representation were performed with GraphPad Prism software version 10.6.1 (San Diego, CA, USA). Changes in Fluo-4 fluorescence are depicted as ΔF/F0 (%), i.e. the change in fluorescence (ΔF) relative to the mean basal fluorescence (F0) before application of buffer or compounds/ligands, to correct for intra- and inter-experimental variations in basal fluorescence among individual wells or to correct for compound-evoked changes in fluorescence. Signal amplitudes evoked in the presence of compounds were normalized to the maximal signal amplitude evoked by 3 µM progesterone in the absence of the compound (set to 1) to ease comparisons between experiments.

Compound | IC50 [2] | ΔTm shift for ABHD2^L33-425 determined by DSF [1] | IC50 [3] | further results
17α-hydroxyprogesterone [reference compound] | – | – | – | effect on heat-induced denaturation of ABHD2^L33–E425 (DSF binding) ([1]; 40 µM steroid, 30 min pre-incubation): no binding was observed
C[C@]12CC[C@@H]3c4ccc(O)cc4CC[C@H]3[C@@H]1CC[C@@H]2O [17β-estradiol] | – | – | – | effect on enzymatic activity of purified ABHD2^L33–E425 ([2]; 5 µM steroid or triterpenoid, 300 nM 7-HCA): did not alter; effect on enzymatic activity of purified ABHD2^FL ([3]; 7-HCA and RB substrates (Suppl. Fig. S4A,B), weak effects at ≥5 µM): did not alter
O=C(N1CCCCC1)N1CCCC[C@@H]1Cc1ccccc1 [(R)-1] | 1200 nM | 3.0 °C | – | effect on progesterone-induced hyperactivation [4]: not affected; effect on basal hyperactivation [4]: No statistically significant differences; also recorded: did not affect; compound-evoked changes in [Ca2+]i [5]: only minuscule changes; effect on progesterone-induced Ca2+ signal (amplitude and waveform) [5]: similar
O=C(N1CCCCC1)N1CCCC[C@@H]1c1ccccc1 [(R)-2] | 220 nM | 8.4 °C | 240 nM | effect on progesterone-induced hyperactivation [4]: not affected; effect on basal hyperactivation [4]: No statistically significant differences; also recorded: did not affect; compound-evoked changes in [Ca2+]i [5]: only minuscule changes; effect on progesterone-induced Ca2+ signal (amplitude and waveform) [5]: similar
O=C(N1CCCCC1)N1CCCC[C@H]1Cc1ccccc1 [(S)-1] | 3000 nM | 2.5 °C | – | –
O=C(N1CCCCC1)N1CCCC[C@H]1c1ccccc1 [(S)-2] | 2100 nM | 2.7 °C | 5900 nM | –
Cc1ccc(C2CCCCN2C(=O)N2CCCCC2)cc1 (stereo not shown) [Compound 5] | 940 nM | 3.3 °C | 4200 nM | effect on melting temperature / thermal stability of ABHD2^L33-E425 (DSF), in words ([1]; 10 µM compound, 30 min pre-incubation): increased melting temperature
